Target: T1, Tery_3377 (IdiA/FutA) (Trichodesmium erythraeum, UniProt Q10Z45)
T1 construct: mature protein, predicted signal peptide (residues 1-31) removed, C-terminal His6 tag, pET21a(+), E. coli BL21(DE3); two monomers per asymmetric unit
Assay: X-ray crystal structure, […] Å
Details: two citrates bound in the substrate-binding cleft together with one Fe3+ that they coordinate, about 7 Å from the empty iron site; protein citrate-treated before crystallisation; carboxylic acids mix

T1 sequence (Q10Z45 entry or part of it): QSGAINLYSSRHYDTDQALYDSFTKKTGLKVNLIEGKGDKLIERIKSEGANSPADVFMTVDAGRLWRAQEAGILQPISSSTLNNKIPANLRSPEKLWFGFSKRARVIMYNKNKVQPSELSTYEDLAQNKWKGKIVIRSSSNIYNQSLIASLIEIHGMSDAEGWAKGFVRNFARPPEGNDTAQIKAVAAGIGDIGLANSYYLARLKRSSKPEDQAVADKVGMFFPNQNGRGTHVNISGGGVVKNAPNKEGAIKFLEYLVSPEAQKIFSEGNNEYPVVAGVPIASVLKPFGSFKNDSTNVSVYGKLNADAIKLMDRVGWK

## O=C(O)CC(O)(CC(=O)O)C(=O)O [citrate]
  X-ray crystal structure, 1.2 Å: traps the citrate molecule with bound iron in the substrate-binding cleft
